# Test results from ChEMBL document CHEMBL1201862, “PubChem BioAssay data set” (2004).
#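 Values below derive from 48-hour exposures of cells grown in 96-well plates, with endpoints linearly interpolated between the two concentrations bracketing the appropriate inhibition level. Abbreviation: GI50, concentration required for 50% inhibition of growth.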 Activity calls are given as the source filed them. Cut-off read from the data, not from the text of the source: active = GI50 up to about 1.1 µM and inactive = higher.
# Assays:
# Assay in all cases: growth of human tumour cells (NCI), 48 h
# BT-549 = system: BT-549
# CAKI-1 = system: CAKI-1
# HOP-62 = system: HOP-62
# Hs-578T = system: Hs-578T
# K562 = system: K562
# LOX IMVI = system: LOX IMVI
# MDA-MB-231 = system: MDA-MB-231
# Malme-3M = system: Malme-3M
# NCI-H226 = system: NCI-H226
# NCI-H522 = system: NCI-H522
# NCI/ADR-RES = system: NCI/ADR-RES
# OVCAR-3 = system: OVCAR-3
# RXF 393 = system: RXF 393
# SR = system: SR
# UACC-257 = system: UACC-257
# RPMI-8226 = system: RPMI-8226
# HCC 2998 = system: HCC 2998
# HOP-18 = system: HOP-18
# M19-MEL = system: M19-MEL
# DMS-273 = system: DMS-273
SMILES,GI50 (BT-549),GI50 (CAKI-1),GI50 (HOP-62),GI50 (Hs-578T),GI50 (K562),GI50 (LOX IMVI),GI50 (MDA-MB-231),GI50 (Malme-3M),GI50 (NCI-H226),GI50 (NCI-H522),GI50 (NCI/ADR-RES),GI50 (OVCAR-3),GI50 (RXF 393),GI50 (SR),GI50 (UACC-257),GI50 (RPMI-8226),GI50 (HCC 2998),GI50 (HOP-18),GI50 (M19-MEL),GI50 (DMS-273)
COc1ccc(CCCC(=O)O)c(C)c1,84.9 µM (inactive),17.8 µM (inactive),26.4 µM (inactive),43.5 µM (inactive),39.3 µM (inactive),30.1 µM (inactive),36.1 µM (inactive),27.2 µM (inactive),22.7 µM (inactive),36.8 µM (inactive),> 100 µM (inactive),30.3 µM (inactive),37.1 µM (inactive),9.48 µM (inactive),73.5 µM (inactive),–,–,–,–,–
O=C(O)C(CCc1ccccc1)N1C(=O)c2ccccc2C1=O (stereo unspecified),> 100 µM (inactive),> 100 µM (inactive),> 100 µM (inactive),–,> 100 µM (inactive),> 100 µM (inactive),> 100 µM (inactive),–,> 100 µM (inactive),–,> 100 µM (inactive),> 100 µM (inactive),> 100 µM (inactive),> 100 µM (inactive),> 100 µM (inactive),> 100 µM (inactive),–,–,–,–
COc1nc2[nH]ccc2c(=O)[nH]1,–,> 100 µM (inactive),–,–,> 100 µM (inactive),> 100 µM (inactive),–,> 100 µM (inactive),0.41 µM (active),–,–,–,> 100 µM (inactive),> 100 µM (inactive),> 100 µM (inactive),> 100 µM (inactive),> 100 µM (inactive),42.7 µM (inactive),–,–
COc1cc(C(=O)C/C(CCC(=O)Nc2ccc(Cl)cc2Cl)=N/NC(=O)C(=O)NN)ccc1O,–,46.2 µM (inactive),> 100 µM (inactive),–,28.1 µM (inactive),43.3 µM (inactive),–,> 100 µM (inactive),> 100 µM (inactive),> 100 µM (inactive),–,> 100 µM (inactive),> 100 µM (inactive),–,> 100 µM (inactive),–,> 100 µM (inactive),> 100 µM (inactive),> 100 µM (inactive),–
c1ccc(CSC(SCc2ccccc2)c2cccc3ccccc23)cc1,–,> 10 µM (inactive),> 10 µM (inactive),> 10 µM (inactive),> 10 µM (inactive),–,> 10 µM (inactive),> 10 µM (inactive),> 10 µM (inactive),7.87 µM (inactive),> 10 µM (inactive),–,> 10 µM (inactive),> 10 µM (inactive),–,9.79 µM (inactive),> 10 µM (inactive),–,–,–
CCOC(=O)COc1cccc2occc(=O)c12,–,> 100 µM (inactive),> 100 µM (inactive),–,> 100 µM (inactive),> 100 µM (inactive),–,> 100 µM (inactive),–,> 100 µM (inactive),–,> 100 µM (inactive),–,–,> 100 µM (inactive),> 100 µM (inactive),> 100 µM (inactive),–,> 100 µM (inactive),> 100 µM (inactive)
CCCCC1=C(C(=O)N2CCOCC2)C2(OCCO2)C1=O,23 µM (inactive),21.9 µM (inactive),23.6 µM (inactive),31.7 µM (inactive),–,12.8 µM (inactive),–,20.6 µM (inactive),2.86 µM (inactive),15.7 µM (inactive),22.2 µM (inactive),19.5 µM (inactive),21.1 µM (inactive),83.8 µM (inactive),28.9 µM (inactive),–,–,–,–,–
O=C(NC(COC(=O)C(Cc1ccccc1)NC(=O)c1ccccc1)Cc1ccccc1)c1ccccc1 (stereo unspecified),–,–,> 50 µM (inactive),> 50 µM (inactive),> 50 µM (inactive),–,–,> 50 µM (inactive),–,> 50 µM (inactive),–,> 50 µM (inactive),–,> 50 µM (inactive),> 50 µM (inactive),> 50 µM (inactive),> 50 µM (inactive),–,–,–
CCC(C)(C)n1c(C)nc2c1C(=O)c1ccccc1C2=O,–,–,30.5 µM (inactive),–,13.6 µM (inactive),19.4 µM (inactive),–,32.2 µM (inactive),40.6 µM (inactive),28.4 µM (inactive),–,30.7 µM (inactive),21.1 µM (inactive),9.33 µM (inactive),33.5 µM (inactive),–,45.8 µM (inactive),–,15.7 µM (inactive),11.8 µM (inactive)
COC1/C=C/C(C)C(C(C)C(OC)C(C)CCC(=O)C(C)C(C/C=C/N(C)C=O)OC)OC(=O)/C=C/C=C(\C)CC(OC)CC2=CC(=O)O[C@H](C2)C(C)C(OC)CC(OC)/C=C/C(C)C(OC)C1 (stereo partly specified),0.0108 µM (active),< 0.005 µM (active),< 0.005 µM (active),0.0158 µM (active),–,< 0.005 µM (active),–,0.00966 µM (active),–,0.00588 µM (active),0.0107 µM (active),–,0.0148 µM (active),< 0.005 µM (active),0.00819 µM (active),< 0.005 µM (active),0.0133 µM (active),–,–,–
